Data: US4131681A, “Antiallergic method” (Fujisawa Pharmaceutical Co., Ltd., priority 1977, dated 1978)
Where a name gives a salt, the structure may show the parent alone.

What was measured:
[1] = tested on: Bradykinin-induced bronchoconstruction; assay: Antagonism to Bradykinin-induced bronchoconstruction in guinea-pigs; type: in vivo, guinea-pig (male Hartley); conditions: for Inhibitory effect of Bradykinin-induced bronchoconstruction in guinea-pig: 30 seconds before Bradykinin; for ED50: Cavia porcellus, iv, 30 seconds before Bradykinin 16 mg/kg i.v., Litchfield-Wilcoxon
Description: (5) Antagonism to Bradykinin-induced bronchoconstruction in guinea-pigs
Ten male Hartley strain guinea-pigs were used for each dose. The animals were immobilized with an intraperitoneal dose of 100 mg/kg of gallamine. The trachea was cannulated and the lungs were dilated with air by a respiration pump at the rate of 3 ml/time and 60.2 times/minute. Bradykinin 16 mg/kg was given intravenously and bronchoconstruction induced thereby was measured by Tanbule Strain gauge according to Konzett-Rossler method. The inhibitory effect against bronchoconstruction was determined in comparison with the control group and the treated group, and the ED50 value was measured according to Litchfield-Wilcoxon method. Each test compound was given intravenously 30 seconds before administration of the Bradykinin.

Acute toxicity in mouse = conditions: in vivo, 7 days
Description: (§1) (6) Acute toxicity in mouse and rat
(§2) Each ten male and female ICR-JCL strain mice and Sprague-Dawley-JCL strain rats were used for each dose.
(§3) Each test compound was given to animals in a form of suspension in 0.5% methyl cellose intraperitoneally, subcutaneously and orally. After administration, the incidence of the death was recorded for successive seven days. LD50 values were calculated by the method of Litchfield-Wilcoxon method.

anaphylactic asthma = assay: Antagonism to anaphylactic asthma in guinea-pigs; type: in vivo, guinea-pig (male Hartley); conditions: for Inhibitory effect of anaphylactic asthma in guinea-pig: survival more than 2 hours after antigen spray
Acute toxicity in rat = conditions: in vivo, 7 days
Description: as §1, §2, §3

[2] = tested on: passive cutaneous anaphylaxis (P.C.A.) reaction; assay: Antagonism to passive cutaneous anaphylaxis (P.C.A.) in guinea-pig; type: in vivo, guinea-pig (male Hartley); conditions: for ED50: Cavia porcellus
Description: (b) Guinea-pig antiserum against egg albumin
Five mg of egg albumin emulsified in 0.5 ml of physiological saline and 0.5 ml of Freund's incomplete adjuvant was used as the antigen.
The amulsion was given subcutaneously in a single dose of 1 ml divided equally (0.25 ml) to the four foot pads of male Hartley strain guinea pigs, each weighing 250 to 300 g. Starting two weeks after dosing with the aforementioned emulsion, 0.1% egg albumin emulsified in physiological saline was given subcutaneously in equally divided (0.1 ml) doses of 0.4 ml once a week for 4 weeks to four sites on the backs of the test animals. Blood samples were collected from the carotid artery one week after the last injection, and centrifuged at 3000 r.p.m. at room temperature for 15 minutes. The antisera thus obtained were stored at -20° C.
(3) Antagonism to passive cutaneous anaphylaxis (P.C.A) in guinea-pig
Ten male Hartley strain guinea-pigs, weighing 300-350 g, were used for each dose. The animals were sensitized with 0.1 ml of the guinea-pig antiserum against egg albumin injected intracutaneously on the depilated backs of the animals. Four hours after injection of the antiserum, 1 ml of mixture of egg albumin […] and Evan's blue […] in physiological saline was injected intravenously. Thirty minutes after the injection of the antigen, the animals were sacrificed and the skin was removed. Each test compound was given orally 2 hours and intravenously 5 minutes before administration of the antigen. Each sensitized area of the skin was treated substantially in the same manner as that of the above mentioned test (2) to calculate ED50 value.

[3] = tested on: passive cutaneous anaphylaxis (P.C.A.) reaction; assay: Antagonism to passive cutaneous anaphylaxis (P.C.A.) in rat; type: in vivo, rat (male Sprague-Dawley-JCL); conditions: for ED50: Rattus norvegicus
Description: (1) Preparation of antiserum
(a) Rat reaginic antiserum against egg albumin
One mg of egg albumin emulsified in 0.5 ml of B. pertussisdiphtheria mixed vaccine (Tanabe Seiyaku Company Ltd.) and 0.5 ml of Freund's incomplete adjuvant (Difco) was used as the antigen. The emulsion was given subcutaneously in a single dose of 1 ml divided equally (0.25 ml) to the four foot pads of male Sprague-Dawley JCL strain rats aged 6 weeks, each weighing 170-220 g. Blood samples were collected from the femoral artery 12 days after injection, and centifuged at 3000 r.p.m. at 4° C. for 15 minutes. The antisera thus obtained were stored at -20° C.
(2) antagonism to passive cutaneous anaphylaxis (P.C.A.) in rat
Ten male Sprague-Dawley-JCL strain rats, weighing 290-310 g, were used for each dose. The rat reaginic antiserum against egg albumin was used at a dilution 1:4. The animals were sensitized with 0.1 ml of the antiserum injected intracutaneously on the depilated backs of the rats. Fortyeight hours after the injection of the antiserum, 1 ml of mixture of egg albumin 5 mg and Evans' blue 5 mg in physiological saline 1 ml was injected intravenously. Thirty minutes after the injection of the antigen, animals were sacrificed and the skin was removed. To each sensitized area of the skin was added 10 ml of a 4:1 mixture of acetone and 2% solution of RBS-25 (Marumoto Industrial Co., Ltd.) to extract the dye and the mixture was allowed to stand for 16 hours, during of which the mixture was twice shaken for 30 minutes at 5th hour and 16th hour. It was further centrifuged at 2,000 r.p.m. for 15 minutes and the quantity of the dye in the supernatant solution was determined by colorimetry at […]. Each test compound was given orally 2 hours and intravenously 5 minutes before administration of the antigen. The inhibitory effect of each test compound was determined from the dye amounts measured in comparison with the control group and the treated group and the ED50 value was calculated according to Litchfield-Wilcoxon method.

[4] = i.v., 4 mg/kg, 5 minutes before antigen
[5] = i.v., 16 mg/kg, 5 minutes before antigen
[6] = i.v., 64 mg/kg, 5 minutes before antigen
[7] = p.o., 32 mg/kg, 2 hours before antigen
[8] = p.o., 125 mg/kg, 2 hours before antigen
[9] = iv, 5 min, i.v., 5 minutes before antigen, Litchfield-Wilcoxon
[10] = p.o., 500 mg/kg, 2 hours before antigen
[11] = iv, 5 min, i.v., 5 minutes before antigen

Row | Structure (SMILES) | Inhibitory effect of Bradykinin-induced bronchoconstruction in guinea-pig ([1]; 1 mg/kg i.v.) [%] | Inhibitory effect of Bradykinin-induced bronchoconstruction in guinea-pig ([1]; 4 mg/kg i.v.) [%] | Inhibitory effect of Bradykinin-induced bronchoconstruction in guinea-pig ([1]; 16 mg/kg i.v.) [%] | ED50 [1] [mg/kg] | LD50 at 168 h (Acute toxicity in mouse; po, female) [mg/kg] | LD50 at 168 h (Acute toxicity in mouse; po, male) [mg/kg] | Inhibitory effect of anaphylactic asthma in guinea-pig (anaphylactic asthma; 4 mg/kg i.v.) [%] | Inhibitory effect of anaphylactic asthma in guinea-pig (anaphylactic asthma; 16 mg/kg i.v.) [%] | Inhibitory effect of anaphylactic asthma in guinea-pig (anaphylactic asthma; 64 mg/kg i.v.) [%] | LD50 at 168 h (Acute toxicity in rat; po, female) [mg/kg] | LD50 at 168 h (Acute toxicity in rat; po, male) [mg/kg] | Inhibitory effect of P.C.A. reaction in guinea-pig [2, 4] [%] | Inhibitory effect of P.C.A. reaction in guinea-pig [2, 5] [%] | Inhibitory effect of P.C.A. reaction in guinea-pig [2, 6] [%] | Inhibitory effect of P.C.A. reaction in guinea-pig [2, 7] [%] | Inhibitory effect of P.C.A. reaction in guinea-pig [2, 8] [%] | ED50 [3, 9] [mg/kg] | Inhibitory effect of P.C.A. reaction in rat [3, 4] [%] | Inhibitory effect of P.C.A. reaction in rat [3, 5] [%] | Inhibitory effect of P.C.A. reaction in rat [3, 6] [%] | further results
1 | O=C(O)c1cc(=O)c2c(OCC(O)COc3cccc4oc(C(=O)O)cc(=O)c34)cccc2o1 [Compound C, disodium chromoglycate] | 12 | 28 | 24 | > 16 | > 11000 | > 11000 | 0 | 0 | 10 | > 11000 | > 11000 | 11.4 | 18.4 | -2.2 | -25.4 | 24.6 | 73.2 | 24.1 | 55.6 | 41.4 | ED50 (dose required for 50% protection from death) (anaphylactic asthma; i.v., anaphylactic asthma, Litchfield-Wilcoxon): No effect; Inhibitory effect of P.C.A. reaction in rat [3, 7]: -16.1%; Inhibitory effect of P.C.A. reaction in rat [3, 10]: 9.4%; ED50 (P.C.A. reaction in rat) ([3]; p.o., 2 hours before antigen, Litchfield-Wilcoxon): No effect
2 | O=C(Cn1c(=O)sc2ccc(Cl)cc21)N1CCN(CCO)CC1 [Compound D, 3-[4-(2-hydroxyethyl)-1-piperazinylcarbonylmethyl]-5-chloro-2-benzothiazolinone hydrochloride] | 44 | 94 | 99 | 0.813 | 622 | 564 | – | – | – | 3800 | – | 7.4 | 19.4 | 60.6 | -8.2 | 6.1 | – | – | – | – | Inhibitory effect of Bradykinin-induced bronchoconstruction in guinea-pig ([1]; 0.064 mg/kg i.v.): -14%; Inhibitory effect of Bradykinin-induced bronchoconstruction in guinea-pig ([1]; 0.25 mg/kg i.v.): 27%; ED50 [2, 11]: 46.8 mg/kg; ED50 ([2]; po, 2 hours before antigen): 594 mg/kg; Inhibitory effect of P.C.A. reaction in guinea-pig [2, 10]: 43.4%
3 | O=C(Cn1c(=O)sc2ccc(Cl)cc21)N1CCC(O)CC1 [Compound A, 3-(4-hydroxypiperidino)carbonylmethyl-5-chloro-2-benzothiazolinone] | 89 | 91 | – | 0.278 | > 8000 | > 8000 | 0 | 90 | 100 | > 8000 | > 8000 | 15.5 | 32.9 | 68.9 | 33.5 | 31.7 | 56.6 | 22.6 | 41.5 | 49.1 | Inhibitory effect of Bradykinin-induced bronchoconstruction in guinea-pig ([1]; 0.064 mg/kg i.v.): 12%; Inhibitory effect of Bradykinin-induced bronchoconstruction in guinea-pig ([1]; 0.25 mg/kg i.v.): 50%; LD50 at 168 h (Acute toxicity in mouse; ip, female): > 8000 mg/kg; LD50 at 168 h (Acute toxicity in mouse; ip, male): > 8000 mg/kg; LD50 at 168 h (Acute toxicity in mouse; sc, female): > 8000 mg/kg; LD50 at 168 h (Acute toxicity in mouse; sc, male): > 8000 mg/kg; ED50 (anaphylactic asthma; Cavia porcellus, iv, 2 h, i.v., anaphylactic asthma, Litchfield-Wilcoxon, read-out: ED50 (dose required for 50% protection from death)): ~8.5 mg/kg; LD50 at 168 h (Acute toxicity in rat; ip, female): 5800 mg/kg; LD50 at 168 h (Acute toxicity in rat; ip, male): 7110 mg/kg; LD50 at 168 h (Acute toxicity in rat; sc, female): > 8000 mg/kg; LD50 at 168 h (Acute toxicity in rat; sc, male): > 8000 mg/kg; ED50 [2, 11]: 29.1 mg/kg; ED50 ([2]; po, 2 hours before antigen): 202 mg/kg; Inhibitory effect of P.C.A. reaction in guinea-pig [2, 10]: 67.4%; ED50 ([3]; po, 2 hours before antigen, Litchfield-Wilcoxon): 348 mg/kg; Inhibitory effect of P.C.A. reaction in rat [3, 7]: 20.8%; Inhibitory effect of P.C.A. reaction in rat [3, 8]: 20.8%; Inhibitory effect of P.C.A. reaction in rat [3, 10]: 62.3%
